Molecular target: CYP46A1 (Homo sapiens, UniProt Q9Y6A2)
Test: CYP46A1 Enzyme Assay 2 (testosterone substrate, HPLC-MS)
Format: biochemical
Conditions: read-out: IC50 (CYP46A1 inhibitory activity)
Description: Briefly, in a 384-well plate format, 10 μL per well of an enzyme-substrate mixture of CYP46A1 (5 μM final concentration) and Testosterone ([…] final concentration) were dispensed to wells containing test compound. For CYP46A1 titration, 5 μL per well of serially diluted CYP46A1 (concentrations including 10 μM, 5 μM, and 2.5 μM) and Testosterone (concentration of […]) were dispensed. For Testosterone titration, 5 μL per well of serially diluted Testosterone (concentrations including 10 μM, 5 μM, and 2.5 μM) and CYP46A1 (concentration of 5 μM) were dispensed. The plates were centrifuged at 1000 rpm for 30 seconds, and then sealed and incubated at 37° C. for 30 minutes. The plate was removed from the incubator, and then 10 μL per well of NADPH-generating system were dispensed to initiate the reaction. The plates were incubated at 37° C. for 15 minutes, added with 80 μL per well of 100% methanol consisting 1 ng/ml diclofenac as internal standard, and then transferred for HPLC-MS.

Chain of CYP46A1 (Q9Y6A2 whole entry): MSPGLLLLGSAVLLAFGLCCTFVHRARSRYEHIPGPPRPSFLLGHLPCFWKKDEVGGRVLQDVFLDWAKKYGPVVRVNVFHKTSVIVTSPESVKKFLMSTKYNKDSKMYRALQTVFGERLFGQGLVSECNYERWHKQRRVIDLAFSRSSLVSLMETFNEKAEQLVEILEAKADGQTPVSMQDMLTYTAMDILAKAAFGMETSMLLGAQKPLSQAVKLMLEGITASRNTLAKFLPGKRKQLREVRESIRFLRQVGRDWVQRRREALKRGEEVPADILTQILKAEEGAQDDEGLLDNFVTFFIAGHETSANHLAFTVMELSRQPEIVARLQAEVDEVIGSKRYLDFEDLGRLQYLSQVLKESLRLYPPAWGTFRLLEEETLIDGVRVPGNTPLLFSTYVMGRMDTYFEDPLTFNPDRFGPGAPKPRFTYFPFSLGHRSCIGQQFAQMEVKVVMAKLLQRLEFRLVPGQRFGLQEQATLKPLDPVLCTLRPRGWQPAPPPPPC

Compound | IC50
N#CC1(Cc2ccccc2C(F)(F)F)CCN(C(=O)c2cccnc2-c2ccncn2)CC1 [Compound A262, 1-(2-(pyrimidin-4-yl)nicotinoyl)-4-(2-(trifluoromethyl)benzyl)piperidine-4-carbonitrile] | < 100 nM
N#CC1(Cc2ccc(F)cc2)CCN(C(=O)c2cccnc2-c2cnco2)CC1 [Compound A56, 4-(4-fluorobenzyl)-1-(2-(oxazol-5-yl)nicotinoyl)piperidine-4-carbonitrile] | 100 to 1000 nM
N#CC1(Cc2c(F)cc(F)cc2F)CCN(C(=O)c2cccnc2-c2ccncc2)CC1 [Compound A272, 1-([2,4′-bipyridine]-3-carbonyl)-4-(2,4,6-trifluorobenzyl)piperidine-4-carbonitrile] | < 100 nM
N#CC1(Cc2ccc(C(F)(F)F)cc2)CCN(C(=O)c2cccnc2-c2ccncn2)CC1 [Compound A40, 1-(2-(pyrimidin-4-yl)nicotinoyl)-4-(4-(trifluoromethyl)benzyl)piperidine-4-carbonitrile] | < 100 nM
N#CC1(Cc2cccc(C(F)(F)F)c2F)CCN(C(=O)c2cccnc2-c2ccncc2)CC1 [Compound A266, 1-([2,4′-bipyridine]-3-carbonyl)-4-(2-fluoro-3-(trifluoromethyl)benzyl)piperidine-4-carbonitrile] | < 100 nM
N#CC1(Cc2cccc(Cl)c2)CCN(C(=O)c2cccnc2-c2ccncc2)CC1 [Compound A22] | < 100 nM
N#CC1(Cc2c(F)cc(C(F)(F)F)cc2F)CCN(C(=O)c2cccnc2-c2ccncc2)CC1 [Compound A280, 1-([2,4′-bipyridine]-3-carbonyl)-4-(2,6-difluoro-4-(trifluoromethyl)benzyl)piperidine-4-carbonitrile] | < 100 nM
C[C@@H](c1ccc(F)cc1F)C1(C#N)CCN(C(=O)c2cccnc2-c2ccncn2)CC1 [Compound A242, (R)-4-(1-(2,4-difluorophenyl)ethyl)-1-(2-(pyrimidin-4-yl)nicotinoyl)piperidine-4-carbonitrile] | < 100 nM
N#CC1(Cc2ccc(F)cc2)CCN(C(=O)c2cccnc2-c2ncncc2F)CC1 [Compound A233, 4-(4-fluorobenzyl)-1-(2-(5-fluoropyrimidin-4-yl)nicotinoyl)piperidine-4-carbonitrile] | > 1000 nM
CC(c1cc(F)cc(F)c1)C1(C#N)CCN(C(=O)c2cccnc2-c2ccncc2)CC1 (stereo in doubt) [Compound A259, (S)-1-([2,4′-bipyridine]-3-carbonyl)-4-(1-(3,5-difluorophenyl)ethyl)piperidine-4-carbonitrile] | < 100 nM
CC(c1cc(F)cc(F)c1)C1(C#N)CCN(C(=O)c2cccnc2-c2ccncn2)CC1 (stereo in doubt) [Compound A257, (S)-4-(1-(3,5-difluorophenyl)ethyl)-1-(2-(pyrimidin-4-yl)nicotinoyl)piperidine-4-carbonitrile] | < 100 nM
N#CC1(Cc2ccc(F)cc2)CCN(C(=O)c2cc(Cl)ccc2-c2ccncn2)CC1 [Compound A234, 1-(5-chloro-2-(pyrimidin-4-yl)benzoyl)-4-(4-fluorobenzyl)piperidine-4-carbonitrile] | < 100 nM
N#CC1(Cc2ccc(Cl)cc2)CCN(C(=O)c2cccnc2-c2ccncn2)CC1 [Compound A37, 4-(4-chlorobenzyl)-1-(2-(pyrimidin-4-yl)nicotinoyl)piperidine-4-carbonitrile] | < 100 nM
N#CC1(Cc2ccc(C(F)(F)F)cc2)CCN(C(=O)c2cccnc2-c2ccncc2)CC1 [Compound A285, 1-([2,4′-bipyridine]-3-carbonyl)-4-(4-(trifluoromethyl)benzyl)piperidine-4-carbonitrile] | < 100 nM
CC(c1ccc(C(F)(F)F)cc1)C1(C#N)CCN(C(=O)c2cccnc2-c2ccncc2)CC1 (stereo in doubt) [Compound A269, (S)-1-([2,4′-bipyridine]-3-carbonyl)-4-(1-(4-(trifluoromethyl)phenyl)ethyl)piperidine-4-carbonitrile] | < 100 nM

Reference: patent US20220332699A1 (SAGE THERAPEUTICS, INC., priority 2019, published 2022)
